Measurements published in publication PMC11788587, “Validating Low‐Dose Iohexol as a Marker for Glomerular Filtration Rate by In Vitro and In Vivo Studies” (Clinical and Translational Science, 2025).

How the values were obtained:
hOCT2 = target: T1, hOCT2 (Homo sapiens, UniProt O15244); assay: Inhibition of hOCT2-mediated metformin uptake, stably transfected 293 cells; assay type: cell-based; conditions: substrate 5 µM metformin, median (95% CI)
T1 construct: expressed in transfected cells; host or cells: HEK-293 (293) cells, pEBTetD plasmid, doxycycline-induced
T1 sequence (O15244 1-555): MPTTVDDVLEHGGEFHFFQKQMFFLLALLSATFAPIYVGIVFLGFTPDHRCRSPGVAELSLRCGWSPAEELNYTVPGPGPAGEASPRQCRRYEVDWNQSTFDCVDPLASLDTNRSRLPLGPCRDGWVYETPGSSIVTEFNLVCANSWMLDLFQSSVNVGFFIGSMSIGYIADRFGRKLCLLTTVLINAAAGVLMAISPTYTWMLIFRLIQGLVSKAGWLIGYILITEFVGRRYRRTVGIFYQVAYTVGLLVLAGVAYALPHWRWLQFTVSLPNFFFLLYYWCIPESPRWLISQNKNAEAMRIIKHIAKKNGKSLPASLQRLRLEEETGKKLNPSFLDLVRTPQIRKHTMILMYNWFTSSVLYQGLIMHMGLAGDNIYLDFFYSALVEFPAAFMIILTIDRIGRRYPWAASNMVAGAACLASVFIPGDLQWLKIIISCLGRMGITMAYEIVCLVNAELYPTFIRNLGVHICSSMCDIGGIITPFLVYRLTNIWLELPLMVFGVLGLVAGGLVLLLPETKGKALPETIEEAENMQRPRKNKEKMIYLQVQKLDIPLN
Text: (§1) We characterized the inhibitory potential of iohexol on major drug transporters recommended by regulatory agencies, which were previously assessed in a clinical transporter phenotyping cocktail study. These transporters include hOAT1, hOAT3, hOCT1, hOCT2, hMATE1, hMATE2K, human organic anion transporter polypeptides (hOATP)1B1, hOATP1B3, and human multidrug resistance protein (hMDR)1. Additionally, we investigated whether iohexol is a substrate for any of the renal transporters among these, including hOAT1/3, hOCT1/2, and hMATE1/2K. Cell‐based uptake assays were used to assess the activities of hOAT1/3, hOCT1/2, hMATE1/2K, and hOATP1B1/1B3. Inside‐out membrane vesicle uptake assays were used to evaluate the activity of hMDR1.
To determine the maximal inhibitory potential of iohexol, intracellular accumulation of a standard substrate was measured with and without the clinically relevant highest concentrations of iohexol. Control inhibitors were tested in each experiment.
In all subsequent in vitro studies, control experiments were conducted to validate the results. These included positive controls for substrates and inhibitors, as well as cells either without transporter expression or transfected with an empty vector, and control vesicles. Each condition, including cells or vesicles with the transporter and their respective controls, was analyzed in at least three replicates. For detailed information on materials, methods, and data analysis techniques used, refer to the Supporting Information. […]
(§2) R version 4.2.1 (R Foundation for Statistical Computing, Vienna, Austria) was used for statistical evaluations and data visualization. The data analysis approach for the in vitro study was detailed by Hsin CH et al..^1 In brief, for transport assays, the initial uptake rate was calculated by normalizing the substrate concentration to both the protein concentration and the incubation time for each dish or well. The transporter-mediated uptake rate (net uptake) was determined by performing an element-wise subtraction of uptake rates from different conditions. […]

hOAT1 = target: T2, hOAT1 (Homo sapiens, UniProt Q4U2R8); assay: Substrate assessment: iohexol uptake in 293 cells expressing hOAT1 vs control; assay type: in vitro ADME; conditions: 10 μM iohexol, median (95% CI)
T2 construct: expressed in transfected cells; host or cells: HEK-293 (293) cells, pEBTetD plasmid, doxycycline-induced
T2 sequence (Q4U2R8 1-563): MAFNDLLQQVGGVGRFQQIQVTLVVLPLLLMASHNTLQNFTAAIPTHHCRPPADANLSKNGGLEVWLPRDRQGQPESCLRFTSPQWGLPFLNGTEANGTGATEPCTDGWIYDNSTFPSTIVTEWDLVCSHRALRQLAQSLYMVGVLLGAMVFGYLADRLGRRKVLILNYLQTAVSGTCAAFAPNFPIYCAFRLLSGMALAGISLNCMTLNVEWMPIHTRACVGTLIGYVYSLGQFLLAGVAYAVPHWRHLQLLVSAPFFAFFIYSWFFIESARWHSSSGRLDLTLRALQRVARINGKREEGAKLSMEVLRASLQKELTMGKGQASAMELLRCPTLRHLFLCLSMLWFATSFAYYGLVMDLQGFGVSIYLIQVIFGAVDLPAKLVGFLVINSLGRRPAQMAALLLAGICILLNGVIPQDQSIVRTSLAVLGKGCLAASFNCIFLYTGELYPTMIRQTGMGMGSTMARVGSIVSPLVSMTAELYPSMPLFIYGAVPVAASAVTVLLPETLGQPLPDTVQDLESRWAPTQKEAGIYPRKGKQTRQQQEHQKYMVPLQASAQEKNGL
Text: as §1
For substrate assessments, iohexol was incubated with stably transfected HEK‐293 cells expressing one of the following transporters: hOAT1, hOAT3, hOCT1, hOCT2, hMATE1, or hMATE2K, as well as with control cells lacking transporter expression. Stably transfected cell lines containing pEBTetD plasmids with wild‐type human transporter cDNAs were generated as previously described. Transporter expression was induced by adding 1 μg/mL doxycycline to the growth medium for at least 20 h. Iohexol would be considered a substrate for these transporters if: (1) the ratio of iohexol uptake in cells expressing the transporter to that in control cells was ≥ 2, and (2) a known inhibitor of the transporter reduced iohexol uptake to ≤ 50% at concentrations ≥ 10 times its inhibition constant or half‐maximal inhibitory concentration.
Uptake assays were performed using stably transfected 293 cells, with or without the expression of one of the following transporters: hOAT1, hOAT3, hOCT1, hOCT2, hMATE1, or hMATE2K, as previously described.^1
For the substrate assessment, cells were incubated with 10 µM iohexol for 10 minutes and 30 minutes for each transporter. Inhibition assays were performed using specific standard substrates for each transporter: 10 µM para-aminohippuric acid (PAH) for hOAT1, 3 µM estrone-3-sulfate (E3S) for hOAT3, 50 µM metformin for hOCT1, 5 µM metformin for hOCT2, and 3 µM 1-methyl-4-phenylpyridinium (MPP+) for hMATE1 and hMATE2K. […]
as §2

- Inhibitory effect (% reduction of specific activity) (hOCT2; 20 mM iohexol): no notable inhibitory effects
- inhibition at 1000 µM (hOCT2; HEK293, 1 mM iohexol, read-out: Inhibitory effect (% reduction of specific activity)): -13%
- inhibition at 20000 µM (hOCT2; HEK293, 20 mM iohexol, read-out: Inhibitory effect (% reduction of specific activity)): -23%
- Differences in intracellular accumulation (expression on minus off) (hOAT1; 10 minutes): -0.39 (-3.4 to 1.1) pmol/mg protein
- Uptake ratio (transporter-expressing vs non-expressing cells) (hOAT1; 10 minutes): 0.91 (0.75 to 1.2)
- Differences in intracellular accumulation (expression on minus off) (hOAT1; 30 minutes): 0.98 (-0.62 to 2.1) pmol/mg protein
- Uptake ratio (transporter-expressing vs non-expressing cells) (hOAT1; 30 minutes): 1.1 (0.95 to 1.3)
SMILES: CC(=O)N(CC(O)CO)c1c(I)c(C(=O)NCC(O)CO)c(I)c(C(=O)NCC(O)CO)c1I (stereo not shown) [iohexol]
